Assay results reported in patent publication US20030148498A1, “Microorganism overproducing 5'-xanthylic acid” (priority 2001, published 2003).

Tests used:
Mutant strain CJXPK001 = assay: Growth of mutant strain in minimum medium with 3,4-dehydroproline; assay type: cell-based, Corynebacterium ammoniagenes; design: key: +: growth; −: no growth; conditions: 30° C., 5 days
Protocol: (§1) To be more specific, in this innovative research, we adopted Corynebacterium ammoniagenes KFCC 10743 as parent strain and treated it with UV radiation and mutation derivatives such as N-methyl-N′-nitro-N-nitrosoguanidine (NTG) according to ordinary procedure and, by adding 0 to 50 mg/L of proline analogue 3,4-dehydroproline (Sigma Company) in the minimum medium shown in the following Table 1, we developed growing mutant strains. From them, a strain which grows in 30 mg/L 3,4-dehydroproline was separated, named CJXPK001. And, it was deposited under the Budapest Treaty to the Korea Culture Center of Microorganisms on Dec. 7, 2001 with accession Number KCCM 10340.
(§2) Further, after adding 0 to 50 mg/L of 3,4-dehydroproline in the minimum medium shown in the above Table 1 according to concentration levels, the medium was fermented at 30° C. for 5 days. And the whole process was scrutinized to find the growth rates of the mutant strain CJXPK001 and the parent strain KFCC 10743.

Parent strain KFCC 10743 = assay: Growth of parent strain in minimum medium with 3,4-dehydroproline; assay type: cell-based, Corynebacterium ammoniagenes; design: key to growth: +: growth; −: no growth; conditions: 5 days; for growth: 30° C.
Protocol: as §1, §2

[1] = parent strain KFCC 10743, 30° C.

With `O=C(O)C1C=CCN1` (centres unmarked) [3,4-dehydroproline] the growth (Mutant strain CJXPK001; 3,4-dehydroproline 30 mg/L) was “+”, the growth (Mutant strain CJXPK001; 3,4-dehydroproline 40 mg/L) was “−” and the growth (Mutant strain CJXPK001; 3,4-dehydroproline 50 mg/L) was “−”. For the same compound, the growth (Parent strain KFCC 10743; 3,4-dehydroproline 5 mg/L) was “+”, the growth (Parent strain KFCC 10743; 3,4-dehydroproline 10 mg/L) was “−” and the growth (Parent strain KFCC 10743; 3,4-dehydroproline 20 mg/L) was “−”. The growth (Parent strain KFCC 10743; 3,4-dehydroproline 30 mg/L) was “−”, the growth (Parent strain KFCC 10743; 3,4-dehydroproline 40 mg/L) was “−” and the growth (Parent strain KFCC 10743; 3,4-dehydroproline 50 mg/L) was “−”. For the same compound, the “3,4-dehydroproline concentration at which the strain showed resistance” value (Parent strain KFCC 10743; [1]) was 5 mg/L and the “3,4-dehydroproline concentration level at which no growth was observed” value (Parent strain KFCC 10743; [1]) was “above 10 mg/L”.
